The results in this text go back to ChEMBL document CHEMBL5291721, “A preclinical secondary pharmacology resource illuminates target-adverse drug reaction associations of marketed drugs” (Nat Commun, 2023).

Molecules are shown by their SMILES. Where only a bound is given, the exact number is not on record here.

The AC50 is the concentration at which the activity in the assay is half-maximal.

Test [1] deals with Beta-1 adrenergic receptor (Homo sapiens, UniProt P08588). Type of test: functional.
In another test the target is Cannabinoid receptor 1 (Homo sapiens, UniProt P21554). Type of test: functional, cell-based.
Test [2] has as its target Gamma-aminobutyric acid receptor subunit alpha-1 (Rattus norvegicus, UniProt P62813). Type of test: functional.
For test [3], the target named is 5-hydroxytryptamine receptor 2B (Homo sapiens, UniProt P41595). Type of test: functional, cell-based.
Test [4] addresses Delta-type opioid receptor (Homo sapiens, UniProt P41143).
Test [5] concerns the target T1, Equilibrative nucleoside transporter 1 (Homo sapiens, UniProt Q99808).
T1 sequence (Q99808 whole entry): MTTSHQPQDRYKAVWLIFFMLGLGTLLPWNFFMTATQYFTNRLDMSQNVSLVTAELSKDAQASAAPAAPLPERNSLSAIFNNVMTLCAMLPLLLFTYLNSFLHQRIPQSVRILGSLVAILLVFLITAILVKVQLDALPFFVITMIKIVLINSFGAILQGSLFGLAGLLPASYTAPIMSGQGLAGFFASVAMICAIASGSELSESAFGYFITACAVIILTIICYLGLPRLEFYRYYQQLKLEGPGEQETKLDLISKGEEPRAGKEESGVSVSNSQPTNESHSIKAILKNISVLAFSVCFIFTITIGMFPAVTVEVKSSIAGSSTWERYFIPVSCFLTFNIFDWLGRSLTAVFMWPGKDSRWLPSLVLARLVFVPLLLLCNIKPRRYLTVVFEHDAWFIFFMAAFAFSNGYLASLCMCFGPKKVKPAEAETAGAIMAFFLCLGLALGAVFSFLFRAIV

The target in test [6] is Sodium-dependent noradrenaline transporter (Homo sapiens, UniProt P23975).
Test [7] has as its target T2, Amine oxidase [flavin-containing] A (Homo sapiens, UniProt P21397).
T2 sequence (P21397 whole entry): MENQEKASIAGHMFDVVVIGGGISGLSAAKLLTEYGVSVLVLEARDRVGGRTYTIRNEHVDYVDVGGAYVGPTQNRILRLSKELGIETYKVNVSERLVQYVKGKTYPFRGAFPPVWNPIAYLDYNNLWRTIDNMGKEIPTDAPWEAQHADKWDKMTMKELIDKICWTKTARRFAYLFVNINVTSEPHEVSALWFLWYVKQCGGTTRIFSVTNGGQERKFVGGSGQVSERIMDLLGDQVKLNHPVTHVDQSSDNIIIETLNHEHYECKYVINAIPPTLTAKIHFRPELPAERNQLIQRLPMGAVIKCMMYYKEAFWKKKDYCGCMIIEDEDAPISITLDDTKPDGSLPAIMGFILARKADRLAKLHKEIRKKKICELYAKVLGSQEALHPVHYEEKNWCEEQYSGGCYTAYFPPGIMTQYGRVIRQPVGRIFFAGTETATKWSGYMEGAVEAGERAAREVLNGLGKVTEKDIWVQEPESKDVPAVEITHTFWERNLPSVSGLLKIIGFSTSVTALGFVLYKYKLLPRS
It is filed as functional.

Test [8] addresses cGMP-inhibited 3',5'-cyclic phosphodiesterase 3A (Homo sapiens, UniProt Q14432). It is filed as functional.
Another test addresses Vasopressin V2 receptor (Homo sapiens, UniProt P30518).
The next test concerns the target Histamine H2 receptor (Homo sapiens, UniProt P25021). Type of test: functional, cell-based.
For test [9], the target named is T3, Neuropeptide Y receptor type 1 (Homo sapiens, UniProt P25929).
T3 sequence (P25929 whole entry): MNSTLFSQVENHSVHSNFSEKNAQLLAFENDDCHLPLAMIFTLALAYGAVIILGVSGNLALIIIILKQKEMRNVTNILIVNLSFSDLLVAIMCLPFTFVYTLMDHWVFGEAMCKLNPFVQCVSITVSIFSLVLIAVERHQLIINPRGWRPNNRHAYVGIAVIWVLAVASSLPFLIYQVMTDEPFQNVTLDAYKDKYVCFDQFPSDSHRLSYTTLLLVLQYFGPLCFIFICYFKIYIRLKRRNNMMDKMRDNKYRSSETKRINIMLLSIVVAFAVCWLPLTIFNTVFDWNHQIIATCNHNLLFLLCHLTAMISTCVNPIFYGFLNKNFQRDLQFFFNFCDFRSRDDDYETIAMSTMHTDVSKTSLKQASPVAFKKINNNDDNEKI
Note: assay procedure not described here.

Chain of 5-hydroxytryptamine receptor 2B (P41595 whole entry): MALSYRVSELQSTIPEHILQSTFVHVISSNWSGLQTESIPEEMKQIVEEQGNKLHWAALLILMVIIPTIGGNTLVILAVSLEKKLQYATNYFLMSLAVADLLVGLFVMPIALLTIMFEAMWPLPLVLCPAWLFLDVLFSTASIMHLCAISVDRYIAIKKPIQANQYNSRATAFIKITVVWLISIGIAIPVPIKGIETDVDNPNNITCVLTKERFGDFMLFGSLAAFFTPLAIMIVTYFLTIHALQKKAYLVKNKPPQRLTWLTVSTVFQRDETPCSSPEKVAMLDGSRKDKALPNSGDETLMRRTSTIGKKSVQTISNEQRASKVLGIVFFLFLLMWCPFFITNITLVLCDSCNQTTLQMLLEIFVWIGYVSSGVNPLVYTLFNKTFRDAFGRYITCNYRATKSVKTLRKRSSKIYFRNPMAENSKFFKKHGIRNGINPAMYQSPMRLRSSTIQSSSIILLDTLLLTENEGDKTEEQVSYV
Chain of Beta-1 adrenergic receptor (P08588 whole entry): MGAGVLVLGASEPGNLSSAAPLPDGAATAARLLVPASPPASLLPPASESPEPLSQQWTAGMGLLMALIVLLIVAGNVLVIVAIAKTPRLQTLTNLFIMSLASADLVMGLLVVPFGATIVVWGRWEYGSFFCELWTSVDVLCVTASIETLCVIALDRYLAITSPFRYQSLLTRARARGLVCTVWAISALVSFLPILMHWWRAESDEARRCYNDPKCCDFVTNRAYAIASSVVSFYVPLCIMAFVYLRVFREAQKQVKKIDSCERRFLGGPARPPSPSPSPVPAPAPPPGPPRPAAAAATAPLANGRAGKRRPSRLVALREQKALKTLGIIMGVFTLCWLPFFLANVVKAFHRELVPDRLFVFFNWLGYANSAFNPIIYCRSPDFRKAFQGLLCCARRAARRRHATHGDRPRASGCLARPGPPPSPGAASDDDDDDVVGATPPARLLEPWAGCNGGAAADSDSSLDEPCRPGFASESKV
Chain of cGMP-inhibited 3',5'-cyclic phosphodiesterase 3A (Q14432 whole entry): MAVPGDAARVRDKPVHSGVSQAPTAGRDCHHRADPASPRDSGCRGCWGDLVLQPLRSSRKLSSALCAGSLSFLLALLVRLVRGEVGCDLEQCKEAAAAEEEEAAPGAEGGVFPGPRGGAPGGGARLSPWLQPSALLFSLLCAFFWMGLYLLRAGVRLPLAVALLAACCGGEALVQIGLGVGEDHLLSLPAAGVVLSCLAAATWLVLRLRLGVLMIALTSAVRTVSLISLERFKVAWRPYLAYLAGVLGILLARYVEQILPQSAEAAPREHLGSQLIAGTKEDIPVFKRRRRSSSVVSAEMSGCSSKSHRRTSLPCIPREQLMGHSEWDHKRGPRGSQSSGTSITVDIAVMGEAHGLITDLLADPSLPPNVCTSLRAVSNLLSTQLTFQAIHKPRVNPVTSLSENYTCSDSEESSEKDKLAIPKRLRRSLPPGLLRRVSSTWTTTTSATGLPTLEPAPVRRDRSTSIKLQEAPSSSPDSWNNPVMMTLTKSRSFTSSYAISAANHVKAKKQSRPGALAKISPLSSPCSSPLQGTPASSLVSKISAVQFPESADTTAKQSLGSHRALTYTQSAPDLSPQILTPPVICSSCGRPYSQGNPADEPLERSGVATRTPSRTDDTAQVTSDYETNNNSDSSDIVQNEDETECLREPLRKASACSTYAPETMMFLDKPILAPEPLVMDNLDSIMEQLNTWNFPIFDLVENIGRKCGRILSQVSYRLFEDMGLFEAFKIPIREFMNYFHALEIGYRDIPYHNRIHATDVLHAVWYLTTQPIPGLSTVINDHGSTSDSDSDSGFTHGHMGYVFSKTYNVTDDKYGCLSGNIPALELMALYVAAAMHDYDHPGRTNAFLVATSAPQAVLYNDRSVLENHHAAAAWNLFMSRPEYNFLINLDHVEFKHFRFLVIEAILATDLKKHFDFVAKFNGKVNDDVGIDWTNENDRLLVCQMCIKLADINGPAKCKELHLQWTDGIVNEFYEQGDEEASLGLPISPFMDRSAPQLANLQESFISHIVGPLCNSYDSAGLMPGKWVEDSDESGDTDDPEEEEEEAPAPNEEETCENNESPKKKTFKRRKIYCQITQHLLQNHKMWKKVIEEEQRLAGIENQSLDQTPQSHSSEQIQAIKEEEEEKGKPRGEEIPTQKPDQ
Chain of Histamine H2 receptor (P25021 whole entry): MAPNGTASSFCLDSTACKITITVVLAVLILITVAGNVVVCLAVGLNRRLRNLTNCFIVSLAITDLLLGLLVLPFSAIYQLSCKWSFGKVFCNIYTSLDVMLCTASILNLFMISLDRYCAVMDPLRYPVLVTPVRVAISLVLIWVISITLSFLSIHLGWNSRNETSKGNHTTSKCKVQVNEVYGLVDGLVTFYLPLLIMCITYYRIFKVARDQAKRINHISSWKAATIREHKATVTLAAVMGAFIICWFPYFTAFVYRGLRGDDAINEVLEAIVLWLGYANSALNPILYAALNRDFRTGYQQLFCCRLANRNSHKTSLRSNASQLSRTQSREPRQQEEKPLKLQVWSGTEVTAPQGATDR
Chain of Sodium-dependent noradrenaline transporter (P23975 whole entry): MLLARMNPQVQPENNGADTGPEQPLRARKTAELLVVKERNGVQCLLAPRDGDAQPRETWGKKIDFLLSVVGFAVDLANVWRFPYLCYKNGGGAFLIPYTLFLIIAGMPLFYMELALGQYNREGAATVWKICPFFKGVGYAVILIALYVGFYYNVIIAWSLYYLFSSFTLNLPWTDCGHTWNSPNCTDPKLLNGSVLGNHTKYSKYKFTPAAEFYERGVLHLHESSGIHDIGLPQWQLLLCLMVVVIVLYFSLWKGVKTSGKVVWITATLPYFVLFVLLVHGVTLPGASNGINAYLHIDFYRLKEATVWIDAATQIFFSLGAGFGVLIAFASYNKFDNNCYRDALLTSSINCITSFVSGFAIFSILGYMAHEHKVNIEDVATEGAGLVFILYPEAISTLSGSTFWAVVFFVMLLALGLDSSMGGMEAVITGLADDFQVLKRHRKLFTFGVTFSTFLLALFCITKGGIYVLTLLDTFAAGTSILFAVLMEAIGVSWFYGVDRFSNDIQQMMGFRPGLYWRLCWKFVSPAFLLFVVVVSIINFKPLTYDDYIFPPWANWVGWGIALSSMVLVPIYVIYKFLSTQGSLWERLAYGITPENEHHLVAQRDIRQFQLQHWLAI
Chain of Delta-type opioid receptor (P41143 whole entry): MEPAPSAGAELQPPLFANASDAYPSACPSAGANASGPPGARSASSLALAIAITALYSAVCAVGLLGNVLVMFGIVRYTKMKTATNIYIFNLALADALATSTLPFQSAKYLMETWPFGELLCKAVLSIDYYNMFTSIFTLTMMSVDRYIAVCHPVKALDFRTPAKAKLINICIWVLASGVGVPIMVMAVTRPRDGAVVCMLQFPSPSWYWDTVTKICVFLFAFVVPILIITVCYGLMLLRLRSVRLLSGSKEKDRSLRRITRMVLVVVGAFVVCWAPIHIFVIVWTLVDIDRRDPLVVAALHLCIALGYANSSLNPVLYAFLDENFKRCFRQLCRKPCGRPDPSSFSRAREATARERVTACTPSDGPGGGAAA
Chain of Gamma-aminobutyric acid receptor subunit alpha-1 (P62813 whole entry): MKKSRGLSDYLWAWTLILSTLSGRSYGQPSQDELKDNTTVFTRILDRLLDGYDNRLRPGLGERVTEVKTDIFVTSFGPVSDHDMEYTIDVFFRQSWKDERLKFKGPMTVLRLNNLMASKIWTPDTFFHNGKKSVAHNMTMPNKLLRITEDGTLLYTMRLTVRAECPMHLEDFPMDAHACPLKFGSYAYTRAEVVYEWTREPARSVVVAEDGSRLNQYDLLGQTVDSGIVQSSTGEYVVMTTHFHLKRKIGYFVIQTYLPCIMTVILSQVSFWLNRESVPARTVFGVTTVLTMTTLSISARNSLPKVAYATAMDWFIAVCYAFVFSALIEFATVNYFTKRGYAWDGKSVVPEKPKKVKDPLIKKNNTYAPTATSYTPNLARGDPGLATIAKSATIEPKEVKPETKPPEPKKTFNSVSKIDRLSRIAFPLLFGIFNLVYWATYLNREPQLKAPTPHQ
Chain of Cannabinoid receptor 1 (P21554 whole entry): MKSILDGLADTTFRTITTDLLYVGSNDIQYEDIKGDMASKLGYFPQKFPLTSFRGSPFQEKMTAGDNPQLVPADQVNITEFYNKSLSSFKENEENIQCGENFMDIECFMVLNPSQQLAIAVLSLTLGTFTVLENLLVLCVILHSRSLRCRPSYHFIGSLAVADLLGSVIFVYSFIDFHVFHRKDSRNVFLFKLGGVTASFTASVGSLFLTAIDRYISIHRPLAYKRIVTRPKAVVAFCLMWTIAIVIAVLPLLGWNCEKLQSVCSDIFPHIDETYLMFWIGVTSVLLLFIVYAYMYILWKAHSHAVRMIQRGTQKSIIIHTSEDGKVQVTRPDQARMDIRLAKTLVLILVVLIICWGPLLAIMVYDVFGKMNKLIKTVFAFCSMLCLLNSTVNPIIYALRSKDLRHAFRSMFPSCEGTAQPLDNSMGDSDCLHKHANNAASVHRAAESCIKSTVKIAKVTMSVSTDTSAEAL
Chain of Vasopressin V2 receptor (P30518 whole entry): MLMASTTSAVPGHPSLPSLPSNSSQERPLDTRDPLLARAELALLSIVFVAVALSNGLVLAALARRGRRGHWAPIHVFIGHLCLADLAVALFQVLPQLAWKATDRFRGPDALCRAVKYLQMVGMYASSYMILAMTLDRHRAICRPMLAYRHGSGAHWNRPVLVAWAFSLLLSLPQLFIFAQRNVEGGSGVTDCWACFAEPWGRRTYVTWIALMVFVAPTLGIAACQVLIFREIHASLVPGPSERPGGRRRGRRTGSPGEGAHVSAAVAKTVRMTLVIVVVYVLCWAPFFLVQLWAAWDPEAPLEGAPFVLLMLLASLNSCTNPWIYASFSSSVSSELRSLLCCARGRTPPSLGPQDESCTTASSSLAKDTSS

As for `CCOc1cc([C@@H](CS(C)(=O)=O)N2C(=O)c3cccc(NC(C)=O)c3C2=O)ccc1OC`, the half-maximal activity concentration (AC50) (in test [1]; on Cannabinoid receptor 1; in test [2]; in test [3]; in test [4]; in test [5]) was greater than 30 µM throughout. The AC50 in test [6], in [7] and in test [8] was greater than 30 µM in each case.
For the compound `CC=CC1=C(C(=O)O)N2C(=O)[C@@H](NC(=O)[C@H](N)c3ccc(O)cc3)[C@H]2SC1` [CEFPROZIL], the AC50 (in test [1]; on Vasopressin V2 receptor; in [2]; at Histamine H2 receptor; in test [3]; in test [9]) was greater than 30 µM each time. Also, the concentration at half-maximal activity (AC50) in test [4], in [5], in [6], in test [7] and in [8] was greater than 30 µM each time.
On to `Cc1cc(C2CCCCC2)n(O)c(=O)c1` [CICLOPIROX], for which the concentration at half-maximal activity (AC50) in [1], in test [6], in [7] and in test [8] was greater than 30 µM throughout.
`Clc1ccc(Cn2c(CN3CCCC3)nc3ccccc32)cc1` [CLEMIZOLE]: the AC50 in test [1] is greater than 30 µM; at Cannabinoid receptor 1 it was greater than 30 µM; in [2], greater than 30 µM; in [3], 0.67 µM; in test [4], greater than 30 µM; in [5], greater than 30 µM. Further, the AC50 in test [6], in test [7] and in [8] was greater than 30 µM throughout.
With `CNC[C@H](O)c1ccc(O)c(O)c1` [EPINEPHRINE], the AC50 (at Cannabinoid receptor 1; in [2]; in test [3]; in [4]; in test [5]; in test [6]) was greater than 30 µM throughout. Also, the AC50 in [7] and in test [8] was greater than 30 µM throughout.
For `CCCCCCCN(CC)CCCC(O)c1ccc(NS(C)(=O)=O)cc1` (configuration not stated) [IBUTILIDE], the AC50 (in [1]; on Vasopressin V2 receptor; in test [2]; at Histamine H2 receptor; in [3]; in test [9]) was greater than 30 µM throughout. Also, the AC50 in test [4], in test [5], in test [6], in test [7] and in test [8] was greater than 30 µM each time.
As for `CNC(=C[N+](=O)[O-])NCCSCc1csc(CN(C)C)n1` [NIZATIDINE], the AC50 (in test [1]; on Vasopressin V2 receptor; in test [2]; on Histamine H2 receptor; in test [3]; in [9]) was greater than 10 µM each time. In addition, the concentration at half-maximal activity (AC50) in [4] is greater than 30 µM; in [5], greater than 10 µM; in test [6], greater than 10 µM; in test [7], greater than 10 µM; in test [8] it was greater than 30 µM.
For `CCCc1cc(=O)[nH]c(=S)[nH]1` [PROPYLTHIOURACIL], the AC50 (in test [1]; on Vasopressin V2 receptor; in test [2]; at Histamine H2 receptor; in test [3]; in test [9]) was greater than 10 µM in each case. Also, the AC50 in test [4] was greater than 30 µM; in [5], greater than 10 µM; in test [6], greater than 10 µM; in [7] it was greater than 10 µM; in test [8] it was greater than 30 µM.
Take `S=P(N1CC1)(N1CC1)N1CC1` [THIOTEPA]: the half-maximal activity concentration (AC50) (in test [1]; at Cannabinoid receptor 1; in [2]; in test [3]; in test [4]; in [5]) was greater than 30 µM in each case. Further, the AC50 in test [7] and in test [8] was greater than 30 µM each time.
